According to patent publication US7868026B2, “Therapeutic compounds” (Pfizer Inc., priority 2005, dated 2011):
Like-named read-outs stand apart in the source and are kept apart here.

Assays:
Type in all cases: biochemical
CYP3A4 [1] = target: T1, CYP3A4 (Homo sapiens, UniProt P08684); experiment: Determination of compound Kiapp against recombinant CYP3A4 enzyme (BFC fluorescent substrate)
Method in brief: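 Kiapp derived from initial velocities over the first 5 min of BFC (5 uM) oxidation, using Morrison's tight-binding equation for non-partial and Szedlacsek's for partial inhibitors. Inhibitor first pre-incubated ≥30 min with CYP3A4 (5.5 or 8 nM, ±b5) in pH 7.0 phosphate/TCEP/2% DMF at room temperature; 200 uM NADPH initiated.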

CYP3A4 [2] = target: T1, CYP3A4; experiment: Determination of IC50 against CYP3A4 by measurement of inhibition of midazolam metabolism (human liver microsomes, 1-hydroxymidazolam by LC-MS/MS); set-up: 0.1 mg/mL human liver microsomes; settings: 2 μM midazolam, 0.1 mg/mL human liver microsomes
Method in brief: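 Human liver microsomes (0.1 mg/mL) incubated 8 min with 2 μM midazolam and 1 mM NADPH in 100 mM potassium phosphate, pH 7.4. 1-Hydroxymidazolam quantified by LC-MS/MS (MRM) as peak area ratio to internal standard against a metabolite standard curve.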

CYP3A4 [3] = target: T1, CYP3A4; experiment: Determination of IC50 against CYP3A4 by measurement of inhibition of testosterone metabolism (human liver microsomes, 6-β-OH-testosterone by LC-MS/MS); set-up: 0.1 mg/mL human liver microsomes; settings: read-out: IC50 (Testo.)
Method in brief: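 6-β-OH-testosterone formation was read by LC-MS/MS (MRM, internal standard, standard curve) after eight minutes. Reaction contained testosterone 25 μM, NADPH 1 mM and microsomal protein 0.1 mg/mL in pH 7.4 potassium phosphate (100 mM).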

[4] = Baculo. enzyme preparation, read-out: Kiapp (BFC, Baculo.)
[5] = Super. enzyme preparation, read-out: Kiapp (BFC, Super.)

T1 sequence (P08684 whole entry): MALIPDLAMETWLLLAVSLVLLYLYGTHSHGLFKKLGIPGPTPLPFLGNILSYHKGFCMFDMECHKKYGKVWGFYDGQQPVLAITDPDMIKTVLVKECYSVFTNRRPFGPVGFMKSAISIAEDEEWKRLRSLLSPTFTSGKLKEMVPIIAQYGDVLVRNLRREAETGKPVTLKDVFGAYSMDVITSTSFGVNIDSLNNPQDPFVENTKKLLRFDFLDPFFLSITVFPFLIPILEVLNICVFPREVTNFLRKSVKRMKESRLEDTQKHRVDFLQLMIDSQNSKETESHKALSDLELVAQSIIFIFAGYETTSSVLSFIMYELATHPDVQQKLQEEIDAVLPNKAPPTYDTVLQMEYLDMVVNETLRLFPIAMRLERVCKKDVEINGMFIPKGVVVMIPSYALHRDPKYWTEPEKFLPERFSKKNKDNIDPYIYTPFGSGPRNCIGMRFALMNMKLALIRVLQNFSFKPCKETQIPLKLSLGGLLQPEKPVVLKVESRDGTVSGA

SMILES	Ki (CYP3A4 [1]; [4]) [nM]	Ki (CYP3A4 [1]; [5]) [nM]	IC50 (CYP3A4 [2]) [nM]	IC50 (CYP3A4 [3]) [nM]
CCCCN(C)C(=O)c1ccccc1S(=O)(=O)Nc1cccnc1 [Example 376, N-butyl-N-methyl-2-[(pyridin-3-ylamino)sulfonyl]benzamide]	117	73	27	43
COc1cncc(NS(=O)(=O)c2ccccc2C(=O)N2CCCCC2)c1 [Example 16, N-(5-methoxypyridin-3-yl)-2-(piperidin-1-ylcarbonyl)benzenesulfonamide]	433		65	117
CCCCN(C)C(=O)c1ccccc1S(=O)(=O)Nc1cnccc1OC [Example 280, N-butyl-2-{[(4-methoxypyridin-3-yl)amino]sulfonyl}-N-methylbenzamide]	400	52.5	39	95
Cc1ccccc1CNC(=O)c1ccccc1S(=O)(=O)Nc1cccnc1 [Example 74, N-(2-methylbenzyl)-2-[(pyridin-3-ylamino)sulfonyl]benzamide]	174	4.8	23	< 3
CN(Cc1ccc(F)c(F)c1)C(=O)c1ccccc1S(=O)(=O)Nc1cccnc1 [Example 284, N-(3,4-difluorobenzyl)-N-methyl-2-[(pyridin-3-ylamino)sulfonyl]benzamide]	99.8	14.2	15	49
O=C(NCCc1ccccn1)c1ccccc1S(=O)(=O)Nc1cccnc1 [Example 66, 2-[(pyridin-3-ylamino)sulfonyl]-N-(2-pyridin-2-ylethyl)benzamide]	> 1000	210	146	302
CCOc1cncc(NS(=O)(=O)c2ccccc2C(=O)N2CCCC(C)(C)C2)c1 [Example 298, 2-[(3,3-dimethylpiperidin-1-yl)carbonyl]-N-(5-ethoxypyridin-3-yl)benzenesulfonamide]	58.5	15.6	31	135
CCCCCNC(=O)c1ccccc1S(=O)(=O)N(C)c1cncc(OC)c1 [Example 364, 2-{[(5-methoxypyridin-3-yl)(methyl)amino]sulfonyl}-N-pentylbenzamide]	86.8	23.4	33	49
CCN(Cc1ccccc1)C(=O)c1ccccc1S(=O)(=O)Nc1cccnc1 [Example 78, N-benzyl-N-ethyl-2-[(pyridin-3-ylamino)sulfonyl]benzamide]	158	13.8	22	> 750
Cc1ccncc1NS(=O)(=O)c1ccccc1C(=O)NCc1ccc(F)c(Cl)c1 [Example 168, N-(3-chloro-4-fluorobenzyl)-2-{[(4-methylpyridin-3-yl)amino]sulfonyl}benzamide]	66	11.7	9	18
COc1cncc(NS(=O)(=O)c2ccccc2C(=O)NC(CO)Cc2ccc(Cl)cc2)c1 (centres unmarked) [Example 199, N-[1-(4-chlorobenzyl)-2-hydroxyethyl]-2-{[(5-methoxypyridin-3-yl)amino]sulfonyl}benzamide]	12.7	10.5	6	11
CC(C)(CO)NC(=O)c1ccccc1S(=O)(=O)Nc1cccnc1 [Example 39, N-(2-hydroxy-1,1-dimethylethyl)-2-[(pyridin-3-ylamino)sulfonyl]benzamide]	> 1000		> 500	> 500
CCCN(C)C(=O)c1ccccc1S(=O)(=O)Nc1cncc(OC)c1 [Example 245, 2-{[(5-methoxypyridin-3-yl)amino]sulfonyl}-N-methyl-N-propylbenzamide]	164	18.7	29	63
CCOc1ccncc1NS(=O)(=O)c1ccccc1C(=O)N(C)CCOC [Example 160, 2-{[(4-ethoxypyridin-3-yl)amino]sulfonyl}-N-(2-methoxyethyl)-N-methylbenzamide]	> 1000	163	129	202
Cc1cncc(NS(=O)(=O)c2ccccc2C(=O)NCCc2ccccc2F)c1 [Example 227, N-[2-(2-fluorophenyl)ethyl]-2-{[(5-methylpyridin-3-yl)amino]sulfonyl}benzamide]	86.8	8.6	5	11
CCOc1cncc(NS(=O)(=O)c2ccccc2C(=O)NC2CC2)c1 [Example 301, N-cyclopropyl-2-{[(5-ethoxypyridin-3-yl)amino]sulfonyl}benzamide]	409	152	140	> 750

SMILES	Ki (CYP3A4 [1]; [4]) [nM]	Ki (CYP3A4 [1]; [5]) [nM]	IC50 (CYP3A4 [2]) [nM]	IC50 (CYP3A4 [3]) [nM]
CCCCOCCCNC(=O)c1ccccc1S(=O)(=O)Nc1cccnc1 [Example 59, N-(3-butoxypropyl)-2-[(pyridin-3-ylamino)sulfonyl]benzamide]	838	57.4	109	117
Cc1ccccc1CCNC(=O)c1ccccc1S(=O)(=O)Nc1cnccc1C [Example 177, N-[2-(2-methylphenyl)ethyl]-2-{[(4-methylpyridin-3-yl)amino]sulfonyl}benzamide]	70.6	3.5	11	12
Cc1ccncc1NS(=O)(=O)c1ccccc1C(=O)NCc1ccc(F)c(F)c1 [Example 259, N-(3,4-difluorobenzyl)-2-{[(4-methylpyridin-3-yl)amino]sulfonyl}benzamide]	135	12.5	15	15
Cc1ccc(CNC(=O)c2ccccc2S(=O)(=O)Nc2cccnc2)cc1 [Example 79, N-(4-methylbenzyl)-2-[(pyridin-3-ylamino)sulfonyl]benzamide]	144	26.2	30	177
COc1cncc(NS(=O)(=O)c2ccccc2C(=O)NCCC2CCCC2)c1 [Example 209, N-(2-cyclopentylethyl)-2-{[(5-methoxypyridin-3-yl)amino]sulfonyl}benzamide]	18.2	6.1	4	5
Cc1cncc(NS(=O)(=O)c2ccccc2C(=O)N2CCCC(C)(C)C2)c1 [Example 343, 2-[(3,3-dimethylpiperidin-1-yl)carbonyl]-N-(5-methylpyridin-3-yl)benzenesulfonamide]	206	60.3	37	80
CCCN(CC)C(=O)c1ccccc1S(=O)(=O)Nc1cncc(OC)c1 [Example 195, N-ethyl-2-{[(5-methoxypyridin-3-yl)amino]sulfonyl}-N-propylbenzamide]	70.8	35.6	15	32
COc1cncc(NS(=O)(=O)c2ccccc2C(=O)NCCC(C)C)c1 [Example 379, 2-{[(5-methoxypyridin-3-yl)amino]sulfonyl}-N-(3-methylbutyl)benzamide]	120	24.6	8	7
CN(c1cccnc1)S(=O)(=O)c1ccccc1C(=O)N1CCCC1 [Example 328, N-methyl-N-pyridin-3-yl-2-(pyrrolidin-1-ylcarbonyl)benzenesulfonamide]	> 1000	484	> 750	> 750
COc1cncc(NS(=O)(=O)c2ccccc2C(=O)N(C)Cc2ccc(F)c(F)c2)c1 [Example 285, N-(3,4-difluorobenzyl)-2-{[(5-methoxypyridin-3-yl)amino]sulfonyl}-N-methylbenzamide]	26	7.24	19	28
COc1cncc(NS(=O)(=O)c2ccccc2C(=O)NCCO)c1 [Example 176, N-(2-hydroxyethyl)-2-{[(5-methoxypyridin-3-yl)amino]sulfonyl}benzamide]	> 1000	625	406	> 750
COc1cncc(NS(=O)(=O)c2ccccc2C(=O)NCc2ccc(F)cc2Cl)c1 [Example 183, N-(2-chloro-4-fluorobenzyl)-2-{[(5-methoxypyridin-3-yl)amino]sulfonyl}benzamide]	22.6	2	5	11
CCOc1cncc(NS(=O)(=O)c2ccccc2C(=O)NCCC(C)C)c1 [Example 296, 2-{[(5-ethoxypyridin-3-yl)amino]sulfonyl}-N-(3-methylbutyl)benzamide]	35.8	9.32	12	90
COc1cncc(NS(=O)(=O)c2ccccc2C(=O)NC(C(C)C)C(C)C)c1 [Example 211, N-(1-isopropyl-2-methylpropyl)-2-{[(5-methoxypyridin-3-yl)amino]sulfonyl}benzamide]	33.6	7.9	4	19
COc1cncc(NS(=O)(=O)c2ccccc2C(=O)NCCc2cccnc2)c1 [Example 384, 2-{[(5-methoxypyridin-3-yl)amino]sulfonyl}-N-(2-pyridin-3-ylethyl)benzamide]	560	19.2	43	178
